For 19 compounds, IC50 results are on record in patent publication US10189845B2, “4,6-substituted-pyrazolo[1,5-a]pyrazines as janus kinase inhibitors” (ARRAY BIOPHARMA INC., priority 2014, dated 2019).

As usually defined, the IC50 is the concentration needed to halve the response being measured.

Holding throughout (assay type): biochemical
In one test the target is Human Tyk2 kinase domain (Homo sapiens (Human), UniProt P29597). Nature of the test: Tyk2 Inhibition Assay (Example A, Omnia kinase fluorescence peptide substrate assay). Particulars: TYK2 Enzyme IC50 1 mM ATP, averaged IC50 ranges. The method, boiled down: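 Omnia Sox-peptide kinetic fluorescence assay (ex 360/em 485 nm, read every 50 s for 45 min) with 1 nM human Tyk2 kinase domain (aa 886–1187, His tag cleaved, baculovirus-expressed), 1 mM ATP, 8 μM Omnia Y12 peptide, in 25 mM HEPES pH 7.4, 10 mM MgCl2, 0.01% Triton X-100, 1 mM DTT, 2% DMSO. IC50 from 4-parameter logistic fit of percent of control.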
Chain of Human Tyk2 kinase domain (P29597 886-1187): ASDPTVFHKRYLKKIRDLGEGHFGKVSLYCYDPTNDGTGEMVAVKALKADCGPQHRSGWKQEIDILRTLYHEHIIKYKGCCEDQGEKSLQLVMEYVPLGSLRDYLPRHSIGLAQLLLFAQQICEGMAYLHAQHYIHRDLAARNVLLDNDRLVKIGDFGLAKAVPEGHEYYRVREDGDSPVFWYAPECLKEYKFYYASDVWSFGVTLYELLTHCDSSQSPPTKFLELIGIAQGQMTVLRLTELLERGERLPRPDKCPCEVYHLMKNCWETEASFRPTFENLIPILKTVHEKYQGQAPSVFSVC

The next test concerns the target JAK1 (Homo sapiens (Human), UniProt P23458). In words: JAK1 Inhibition Assay (Example B, Omnia kinase fluorescence peptide substrate assay). The method, boiled down:
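Recombinant human JAK1 (12.5 nM) with 1 mM ATP and 8 μM Omnia Y12 Sox-peptide in 25 mM HEPES pH 7.4, 10 mM MgCl2, 0.01% Triton X-100, 1 mM DTT, 2% DMSO final. Phosphorylation read kinetically (ex 360/em 485 nm, 45 min); IC50 from 4-parameter fit of percent of control.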

The next test concerns the target JAK2 (Homo sapiens (Human), UniProt O60674). In words: JAK2 Inhibition Assay (Example C, Omnia kinase fluorescence peptide substrate assay). Particulars: JAK2 Enzyme IC50 1 mM ATP, averaged IC50 ranges. The method, boiled down:
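4 nM JAK2 with 1 mM ATP and 10 μM Omnia Y7 peptide in 25 mM HEPES pH 7.4, 10 mM MgCl2, 0.01% Triton X-100, 1 mM DTT, 2% DMSO. Sox fluorescence (ex 360/em 485 nm) read every 50 s for 45 min; IC50 from 4-parameter fit of percent of control.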

The next test has as its target JAK3 (Homo sapiens (Human), UniProt P52333). Nature of the test: JAK3 Inhibition Assay (Example D, Omnia kinase fluorescence peptide substrate assay). The method in brief: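 Mixture held 2 nM JAK3, 1 mM ATP and 10 μM Omnia Y7 peptide in 25 mM HEPES pH 7.4, 10 mM MgCl2, 0.01% Triton X-100, 1 mM DTT, 2% DMSO final. Sox fluorescence (ex 360/em 485 nm) was read every 50 s for 45 min. IC50 came from a 4-parameter logistic fit of percent of control.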

Where [1] appears, read: JAK1 Enzyme IC50 1 mM ATP, 1 mM ATP, averaged IC50 ranges.

Read-outs that look alike come from different tables or passages of the source.

Chain of JAK1 (P23458 whole entry): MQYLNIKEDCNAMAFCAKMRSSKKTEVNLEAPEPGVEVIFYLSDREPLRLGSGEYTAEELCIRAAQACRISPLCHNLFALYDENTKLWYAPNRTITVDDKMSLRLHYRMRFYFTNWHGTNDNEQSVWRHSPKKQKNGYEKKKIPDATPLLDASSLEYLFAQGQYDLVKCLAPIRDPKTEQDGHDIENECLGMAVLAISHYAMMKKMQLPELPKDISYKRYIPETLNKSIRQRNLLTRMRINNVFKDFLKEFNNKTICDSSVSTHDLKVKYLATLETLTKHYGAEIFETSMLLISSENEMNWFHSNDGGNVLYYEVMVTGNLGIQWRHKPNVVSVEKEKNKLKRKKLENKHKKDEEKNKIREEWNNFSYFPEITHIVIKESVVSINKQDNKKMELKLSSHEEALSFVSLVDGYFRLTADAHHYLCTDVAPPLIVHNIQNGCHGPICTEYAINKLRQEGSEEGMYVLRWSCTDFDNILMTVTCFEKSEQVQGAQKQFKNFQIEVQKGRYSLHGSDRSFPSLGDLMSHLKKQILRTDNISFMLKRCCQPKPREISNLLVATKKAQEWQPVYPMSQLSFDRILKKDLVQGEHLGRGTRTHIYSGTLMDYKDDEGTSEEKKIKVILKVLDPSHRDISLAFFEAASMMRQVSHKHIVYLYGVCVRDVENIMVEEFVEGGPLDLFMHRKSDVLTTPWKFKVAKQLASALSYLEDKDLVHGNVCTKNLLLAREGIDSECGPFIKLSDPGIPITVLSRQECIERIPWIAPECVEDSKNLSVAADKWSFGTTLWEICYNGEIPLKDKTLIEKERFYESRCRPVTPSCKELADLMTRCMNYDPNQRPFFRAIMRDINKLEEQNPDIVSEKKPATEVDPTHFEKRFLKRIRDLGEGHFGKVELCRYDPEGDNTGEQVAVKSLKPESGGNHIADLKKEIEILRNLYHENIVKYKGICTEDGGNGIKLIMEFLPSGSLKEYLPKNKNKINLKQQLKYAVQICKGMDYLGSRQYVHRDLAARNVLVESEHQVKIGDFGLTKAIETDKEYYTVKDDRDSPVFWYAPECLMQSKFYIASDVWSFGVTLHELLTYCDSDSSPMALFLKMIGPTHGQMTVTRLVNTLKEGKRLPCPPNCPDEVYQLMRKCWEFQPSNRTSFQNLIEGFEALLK
Chain of JAK3 (P52333 whole entry): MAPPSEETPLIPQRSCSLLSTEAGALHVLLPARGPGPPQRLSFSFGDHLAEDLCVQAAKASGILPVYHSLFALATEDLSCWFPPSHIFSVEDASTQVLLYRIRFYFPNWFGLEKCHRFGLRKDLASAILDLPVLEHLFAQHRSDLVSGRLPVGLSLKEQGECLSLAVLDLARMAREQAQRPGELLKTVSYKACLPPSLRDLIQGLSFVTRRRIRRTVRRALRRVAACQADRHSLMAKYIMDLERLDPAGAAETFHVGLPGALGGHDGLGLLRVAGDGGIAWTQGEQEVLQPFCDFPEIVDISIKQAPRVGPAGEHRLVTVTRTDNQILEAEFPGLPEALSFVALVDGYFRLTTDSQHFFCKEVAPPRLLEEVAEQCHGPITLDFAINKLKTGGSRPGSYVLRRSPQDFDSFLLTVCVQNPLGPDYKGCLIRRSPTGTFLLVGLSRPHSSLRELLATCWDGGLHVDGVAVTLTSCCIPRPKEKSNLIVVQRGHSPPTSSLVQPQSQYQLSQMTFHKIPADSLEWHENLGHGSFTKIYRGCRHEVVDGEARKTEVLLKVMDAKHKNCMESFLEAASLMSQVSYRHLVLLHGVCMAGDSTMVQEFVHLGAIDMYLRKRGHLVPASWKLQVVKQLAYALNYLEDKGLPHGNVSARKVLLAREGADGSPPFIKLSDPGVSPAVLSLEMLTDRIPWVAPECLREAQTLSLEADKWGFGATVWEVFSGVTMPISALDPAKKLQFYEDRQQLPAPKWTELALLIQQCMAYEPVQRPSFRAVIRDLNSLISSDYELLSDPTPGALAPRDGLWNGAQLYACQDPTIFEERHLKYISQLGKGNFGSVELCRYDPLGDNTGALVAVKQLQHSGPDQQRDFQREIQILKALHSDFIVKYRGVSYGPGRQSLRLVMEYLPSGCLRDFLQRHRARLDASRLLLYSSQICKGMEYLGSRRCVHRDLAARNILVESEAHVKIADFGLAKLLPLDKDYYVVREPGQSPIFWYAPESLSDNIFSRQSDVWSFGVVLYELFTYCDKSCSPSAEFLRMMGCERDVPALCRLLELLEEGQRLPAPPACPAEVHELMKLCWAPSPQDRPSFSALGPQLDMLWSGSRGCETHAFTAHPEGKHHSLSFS
Chain of JAK2 (O60674 whole entry): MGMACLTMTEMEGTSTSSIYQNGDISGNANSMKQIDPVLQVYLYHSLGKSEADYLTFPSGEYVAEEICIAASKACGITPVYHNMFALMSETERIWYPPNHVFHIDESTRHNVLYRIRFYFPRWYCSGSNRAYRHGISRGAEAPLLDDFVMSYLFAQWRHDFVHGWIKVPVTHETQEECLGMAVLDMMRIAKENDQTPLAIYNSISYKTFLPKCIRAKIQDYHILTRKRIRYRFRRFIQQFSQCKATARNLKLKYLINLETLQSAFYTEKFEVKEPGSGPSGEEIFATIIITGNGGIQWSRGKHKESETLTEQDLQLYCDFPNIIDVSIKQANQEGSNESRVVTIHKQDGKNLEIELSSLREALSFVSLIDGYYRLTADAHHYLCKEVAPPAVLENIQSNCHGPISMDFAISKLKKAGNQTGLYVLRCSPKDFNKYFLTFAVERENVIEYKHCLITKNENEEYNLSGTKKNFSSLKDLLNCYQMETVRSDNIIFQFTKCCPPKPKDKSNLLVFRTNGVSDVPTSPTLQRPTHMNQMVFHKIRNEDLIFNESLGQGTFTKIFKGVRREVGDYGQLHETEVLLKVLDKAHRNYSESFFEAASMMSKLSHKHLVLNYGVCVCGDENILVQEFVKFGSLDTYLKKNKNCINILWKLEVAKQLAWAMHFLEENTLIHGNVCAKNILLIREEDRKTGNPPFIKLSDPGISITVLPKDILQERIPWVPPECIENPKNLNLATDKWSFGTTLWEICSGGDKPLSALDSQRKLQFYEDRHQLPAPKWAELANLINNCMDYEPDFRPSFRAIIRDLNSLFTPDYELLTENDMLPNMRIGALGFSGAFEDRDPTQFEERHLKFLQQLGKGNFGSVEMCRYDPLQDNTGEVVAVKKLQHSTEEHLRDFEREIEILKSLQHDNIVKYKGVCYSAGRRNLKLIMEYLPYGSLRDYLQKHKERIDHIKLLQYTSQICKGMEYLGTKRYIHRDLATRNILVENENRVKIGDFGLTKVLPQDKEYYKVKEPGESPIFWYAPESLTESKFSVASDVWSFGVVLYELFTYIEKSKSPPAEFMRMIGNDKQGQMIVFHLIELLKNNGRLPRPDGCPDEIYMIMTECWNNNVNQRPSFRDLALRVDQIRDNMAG

As for `CCC(CC)n1cc(-c2nc(-c3cnn(CCN4CC[C@@H](O)C4)c3)cn3nccc23)cn1` [Example 140, (R)-1-(2-(4-(4-(1-(pentan-3-yl)-1H-pyrazol-4-yl)pyrazolo[1,5-a]pyrazin-6-yl)-1H-pyrazol-1-yl)ethyl)pyrrolidin-3-ol], the IC50 on Human Tyk2 kinase domain fell in the range of 10 to 100 nM; on JAK1, 1000 to 10000 nM; on JAK2, 10 to 100 nM; on JAK3, 1 to 10 µM.
With `CCC(CC)n1cc(-c2nc(-c3cnn(CCN4CC[C@H](O)C4)c3)cn3nccc23)cn1` [Example 141, (S)-1-(2-(4-(4-(1-(pentan-3-yl)-1H-pyrazol-4-yl)pyrazolo[1,5-a]pyrazin-6-yl)-1H-pyrazol-1-yl)ethyl)pyrrolidin-3-ol], the IC50 lay within 10 to 100 nM against Human Tyk2 kinase domain, 1000 to 10000 nM against JAK1, 10 to 100 nM on JAK2 and 1 to 10 µM on JAK3.
As to `CCC(CC)n1cc(-c2nc(-c3cnn(CCN[C@H]4CCN(C)C4=O)c3)cn3nccc23)cn1` [Example 142, (S)-1-methyl-3-((2-(4-(4-(1-(pentan-3-yl)-1H-pyrazol-4-yl)pyrazolo[1,5-a]pyrazin-6-yl)-1H-pyrazol-1-yl)ethyl)amino)pyrrolidin-2-one], the IC50 on Human Tyk2 kinase domain lay in the range of 10 to 100 nM; at JAK1 it was 1000 to 10000 nM; on JAK2 it was 10 to 100 nM; against JAK3, 1 to 10 µM.
On to `CCC(CC)n1cc(-c2nc(-c3cnn(CCN[C@@H]4CCN(C)C4=O)c3)cn3nccc23)cn1` [Example 143, (R)-1-methyl-3-((2-(4-(4-(1-(pentan-3-yl)-1H-pyrazol-4-yl)pyrazolo[1,5-a]pyrazin-6-yl)-1H-pyrazol-1-yl)ethyl)amino)pyrrolidin-2-one], for which the IC50 against Human Tyk2 kinase domain fell in the range of 100 to 1000 nM; against JAK1, 1000 to 10000 nM; against JAK2, 10 to 100 nM; on JAK3, 1 to 10 µM.
Taken in the same sequence, the figures for `CCC(CC)n1cc(-c2nc(-c3cnn(CCN4CCNC(=O)C4)c3)cn3nccc23)cn1` [Example 144, 4-(2-(4-(4-(1-(pentan-3-yl)-1H-pyrazol-4-yl)pyrazolo[1,5-a]pyrazin-6-yl)-1H-pyrazol-1-yl)ethyl)piperazin-2-one] were 10 to 100 nM, 100 to 1000 nM, 10 to 100 nM and 1 to 10 µM.
Taken in the same sequence, the figures for `CCC(CC)n1cc(-c2nc(-c3cnn(CCNC4CC(CO)C4)c3)cn3nccc23)cn1` (stereo not shown) [Example 145, (3-((2-(4-(4-(1-(pentan-3-yl)-1H-pyrazol-4-yl)pyrazolo[1,5-a]pyrazin-6-yl)-1H-pyrazol-1-yl)ethyl)amino)cyclobutyl)methanol] were 100 to 1000 nM, 100 to 1000 nM, 10 to 100 nM and 1 to 10 µM.
With `CCC(CC)n1cc(-c2nc(-c3cnn(CCN4CCC(CO)CC4)c3)cn3nccc23)cn1` [Example 146, (1-(2-(4-(4-(1-(pentan-3-yl)-1H-pyrazol-4-yl)pyrazolo[1,5-a]pyrazin-6-yl)-1H-pyrazol-1-yl)ethyl)piperidin-4-yl)methanol], the IC50 at Human Tyk2 kinase domain is 10 to 100 nM; against JAK1, 1000 to 10000 nM; against JAK2 it was 10 to 100 nM; against JAK3 it was 1 to 10 µM.
For the compound `CCC(CC)n1cc(-c2nc(-c3cnn(CCN4CCNCC4=O)c3)cn3nccc23)cn1` [Example 147, 1-(2-(4-(4-(1-(pentan-3-yl)-1H-pyrazol-4-yl)pyrazolo[1,5-a]pyrazin-6-yl)-1H-pyrazol-1-yl)ethyl)piperazin-2-one], the IC50 at Human Tyk2 kinase domain is 10 to 100 nM; against JAK1 it was 1000 to 10000 nM; against JAK2, 10 to 100 nM; against JAK3, 1 to 10 µM.
For the compound `CCC(CC)n1cc(-c2nc(-c3cnn([C@H]4C[C@H](O)C4)c3)cn3nccc23)cn1` [Example 161, trans-3-(4-(4-(1-(pentan-3-yl)-1H-pyrazol-4-yl)pyrazolo[1,5-a]pyrazin-6-yl)-1H-pyrazol-1-yl)cyclobutanol], the IC50 at Human Tyk2 kinase domain lay in the range of 10 to 100 nM; on JAK1 (setting [1]) it was 100 to 1000 nM; against JAK2, 10 to 100 nM; on JAK3 it was 1 to 10 µM.
In the case of `CCC(CC)n1cc(-c2nc(-c3cnn([C@H]4C[C@H](CO)C4)c3)cn3nccc23)cn1` [Example 165, (trans-3-(4-(4-(1-(pentan-3-yl)-1H-pyrazol-4-yl)pyrazolo[1,5-a]pyrazin-6-yl)-1H-pyrazol-1-yl)cyclobutyl)methanol], the IC50 fell in the range of 10 to 100 nM against Human Tyk2 kinase domain, 100 to 1000 nM against JAK1, 10 to 100 nM on JAK2 and 1 to 10 µM against JAK3.
Regarding `CCC(CC)n1cc(-c2nc(-c3cnn([C@H]4C[C@H](C(N)=O)C4)c3)cn3nccc23)cn1` [Example 167, (1r,3r)-3-(4-(4-(1-(pentan-3-yl)-1H-pyrazol-4-yl)pyrazolo[1,5-a]pyrazin-6-yl)-1H-pyrazol-1-yl)cyclobutanecarboxamide], the IC50 on Human Tyk2 kinase domain lay in the range of 10 to 100 nM; at JAK1, 100 to 1000 nM; at JAK2, 10 to 100 nM; at JAK3, 1 to 10 µM.
On to `CCC(CC)n1cc(-c2nc(-c3cnn([C@H]4C[C@H](C(=O)N(C)C)C4)c3)cn3nccc23)cn1` [Example 169, (1r,3r)-N,N-dimethyl-3-(4-(4-(1-(pentan-3-yl)-1H-pyrazol-4-yl)pyrazolo[1,5-a]pyrazin-6-yl)-1H-pyrazol-1-yl)cyclobutanecarboxamide], for which the IC50 at Human Tyk2 kinase domain was in the range of 100 to 1000 nM; against JAK1, 1000 to 10000 nM; against JAK2 it was 100 to 1000 nM; on JAK3, 1 to 10 µM.
`CCC(CC)n1cc(-c2nc(-c3cnn([C@H]4C[C@@H](C(=O)N(C)C)C4)c3)cn3nccc23)cn1` [Example 170, (1s,3s)-N,N-dimethyl-3-(4-(4-(1-(pentan-3-yl)-1H-pyrazol-4-yl)pyrazolo[1,5-a]pyrazin-6-yl)-1H-pyrazol-1-yl)cyclobutanecarboxamide]: the IC50 against Human Tyk2 kinase domain lay in the range of 10 to 100 nM; at JAK1 it was 100 to 1000 nM; on JAK2, 10 to 100 nM; against JAK3, 1 to 10 µM.
On to `CCC(CC)n1cc(-c2nc(-c3cnn(C4CN(C(=O)[C@H](C)O)C4)c3)cn3nccc23)cn1` [Example 173, (S)-2-hydroxy-1-(3-(4-(4-(1-(pentan-3-yl)-1H-pyrazol-4-yl)pyrazolo[1,5-a]pyrazin-6-yl)-1H-pyrazol-1-yl)azetidin-1-yl)propan-1-one], for which the IC50 at Human Tyk2 kinase domain is 10 to 100 nM; against JAK1, 100 to 1000 nM; against JAK2 it was 10 to 100 nM; at JAK3, 1 to 10 µM.
For the compound `CCC(CC)n1cc(-c2nc(-c3cnn(C4CN(C(=O)[C@@H](C)O)C4)c3)cn3nccc23)cn1` [Example 175, (R)-2-hydroxy-1-(3-(4-(4-(1-(pentan-3-yl)-1H-pyrazol-4-yl)pyrazolo[1,5-a]pyrazin-6-yl)-1H-pyrazol-1-yl)azetidin-1-yl)propan-1-one], the IC50 on Human Tyk2 kinase domain was in the range of 100 to 1000 nM; on JAK1 it was 1000 to 10000 nM; at JAK2, 10 to 100 nM; against JAK3, 1 to 10 µM.
For `CCC(CC)n1cc(-c2nc(-c3cnn(C4CN(C(=O)[C@H]5C[C@@H](O)C5)C4)c3)cn3nccc23)cn1` [Example 178, (cis-3-hydroxycyclobutyl)(3-(4-(4-(1-(pentan-3-yl)-1H-pyrazol-4-yl)pyrazolo[1,5-a]pyrazin-6-yl)-1H-pyrazol-1-yl)azetidin-1-yl)methanone] the same measures were 10 to 100 nM, 1000 to 10000 nM, 10 to 100 nM and 1 to 10 µM.
Regarding `CCC(CC)n1cc(-c2nc(-c3cnn(C4CN(C(=O)[C@H]5C[C@H](O)C5)C4)c3)cn3nccc23)cn1` [Example 179, (trans-3-hydroxycyclobutyl)(3-(4-(4-(1-(pentan-3-yl)-1H-pyrazol-4-yl)pyrazolo[1,5-a]pyrazin-6-yl)-1H-pyrazol-1-yl)azetidin-1-yl)methanone], the IC50 against Human Tyk2 kinase domain is 10 to 100 nM; against JAK1 it was 1000 to 10000 nM; on JAK2 it was 10 to 100 nM; on JAK3, 1 to 10 µM.
With `CCC(CC)n1cc(-c2nc(-c3cnn(C4CN(C(=O)CN5CC(O)C5)C4)c3)cn3nccc23)cn1` [Example 180, 2-(3-hydroxyazetidin-1-yl)-1-(3-(4-(4-(1-(pentan-3-yl)-1H-pyrazol-4-yl)pyrazolo[1,5-a]pyrazin-6-yl)-1H-pyrazol-1-yl)azetidin-1-yl)ethanone], the IC50 at Human Tyk2 kinase domain lay within 100 to 1000 nM; against JAK1 (setting [1]), 1000 to 10000 nM; on JAK2 it was 100 to 1000 nM; against JAK3 it was 1 to 10 µM.
Turning to `CCC(CC)n1cc(-c2nc(-c3cnn(C4CN(C(=O)CN5CCCC5)C4)c3)cn3nccc23)cn1` [Example 181, 1-(3-(4-(4-(1-(pentan-3-yl)-1H-pyrazol-4-yl)pyrazolo[1,5-a]pyrazin-6-yl)-1H-pyrazol-1-yl)azetidin-1-yl)-2-(pyrrolidin-1-yl)ethanone], the IC50 was in the range of 10 to 100 nM against Human Tyk2 kinase domain, 100 to 1000 nM against JAK1 (setting [1]), 10 to 100 nM against JAK2 and 1 to 10 µM against JAK3.
